Several values for one entry are separate records, joined by “and”; a condition that tells them apart may be missing. Equal values may be shown once.
Row | SMILES | melting point
1 | CC1(C)CCC(C)(C)c2cc(N(CCc3ccccc3)C(=O)Nc3ccc(C(=O)O)cc3)ccc21 [Compound 5, 4-[3-phenethyl-3-(5,5,8,8-tetramethyl-5,6,7,8-tetrahydro-naphthalen-2-yl)-ureido]-benzoic acid] | 223 to 225 °C and 223 to 224.9 °C
2 | CC1(C)CCC(C)(C)c2cc(N(Cc3ccc(F)cc3)C(=O)Nc3ccc(C(=O)O)cc3)ccc21 [Compound 19, 4-[3-(4-fluorobenzyl)-3-(5,5,8,8-tetramethyl-5,6,7,8-tetrahydro-naphthalen-2-yl)-ureido]-benzoic acid] | 143 to 146 °C and 143.1 to 145.9 °C
3 | CC1(C)CCC(C)(C)c2cc(N(Cc3ccc(Cl)cc3)C(=O)Nc3ccc(C(=O)O)cc3)ccc21 [Compound 21, 4-[3-(4-chlorobenzyl)-3-(5,5,8,8-tetramethyl-5,6,7,8-tetrahydro-naphthalen-2-yl)-ureido]-benzoic acid] | 126 to 133.1 °C and 126 to 133 °C
4 | COc1ccc(CN(C(=O)Nc2ccc(C(=O)O)cc2)c2ccc3c(c2)C(C)(C)CCC3(C)C)cc1 [Compound 23, 4-[3-(4-methoxybenzyl)-3-(5,5,8,8-tetramethyl-5,6,7,8-tetrahydro-naphthalen-2-yl)-ureido]-benzoic acid] | 117 to 121 °C and 116.8 to 120.8 °C
5 | CC1(C)CCC(C)(C)c2cc(N(Cc3cccs3)C(=O)Nc3ccc(C(=O)O)cc3)ccc21 [Compound 31, 4-[3-(5,5,8,8-tetramethyl-5,6,7,8-tetrahydro-naphthalen-2yl)-3-thiophen-2-ylmethyl-ureido]-benzoic acid] | 167 to 170 °C and 167.1 to 170.1 °C
6 | CCOCCN(C(=O)Nc1ccc(C(=O)O)cc1)c1ccc2c(c1)C(C)(C)CCC2(C)C [Compound 33, 4-[3-(2-ethoxy-ethyl)-3-(5,5,8,8-tetramethyl-5,6,7,8-tetrahydro-naphthalen-2-yl)-ureido]-benzoic acid] | 82 to 85 °C
7 | CC1(C)CCC(C)(C)c2cc(N(CCCCOCc3ccccc3)C(=O)Nc3ccc(C(=O)O)cc3)ccc21 [Compound 41, 4-[3-(4-benzyloxy-butyl)-3-(5,5,8,8-tetramethyl-5,6,7,8-tetrahydro-naphthalen-2-yl)-ureido]-benzoic acid] | 158 to 162 °C
8 | CCCCCN(C(=O)Nc1ccc2c(c1)C(C)(C)CCC2(C)C)c1ccc(C(=O)O)cc1 [Compound 42, 4-[1-pentyl-3-(5,5,8,8-tetramethyl-5,6,7,8-tetrahydro-naphthalen-2-yl)-ureido]-benzoic acid] | 201 to 202 °C
9 | CCCCCN(C(=O)Nc1ccc(C(=O)O)cn1)c1ccc2c(c1)C(C)(C)CCC2(C)C [Compound 49, 6-[3-pentyl-3-(5,5,8,8-tetramethyl-5,6,7,8-tetrahydro-naphthalen-2-yl) -ureido]-nicotinic acid] | 175 to 179.5 °C
10 | Cc1cc(CN(C(=O)Nc2ccc(C(=O)O)cc2)c2ccc3c(c2)C(C)(C)CCC3(C)C)no1 [Compound 57, 4-[3-(5-methyl-isoxazol-3-ylmethyl)-3-(5,5,8,8-tetramethyl-5,6,7,8-tetrahydro-naphthalen-2-yl)-ureido]-benzoic acid] | 188 to 193 °C and 188.2 to 193 °C
11 | CC1(C)CCC(C)(C)c2cc(N(CCCCO)C(=O)Nc3ccc(C(=O)O)cc3)ccc21 [Compound 71, 4-[3-(4-hydroxy-butyl)-3-(5,5,8,8-tetramethyl-5,6,7,8-tetrahydro-naphthalen-2-yl)-ureido]-benzoic acid] | 124 to 125 °C
12 | CCN(C(=O)N(CC)c1ccc2c(c1)C(C)(C)CCC2(C)C)c1ccc(C(=O)O)cc1 [Compound 73, 4-[1,3-diethyl-3-(5,5,8,8-tetramethyl-5,6,7,8-tetrahydro-naphthalen-2-yl)-ureido]-benzoic acid] | 169 to 172 °C
